Results as given in ChEMBL document CHEMBL4376804, “Review of Transient Receptor Potential Canonical (TRPC5) Channel Modulators and Diseases” (J Med Chem, 2019).
pEC50, pIC50: −log10 of the molar value. One block for each compound: values may come before it.

Experiments:
[1] = target: T1, Short transient receptor potential channel 6 (Homo sapiens, UniProt Q9Y210); assay: Inhibition of human TRPC6 expressed in thapsigargin pretreated HEK293 cells assessed as reduction in GPCR-induced calcium entry by fluo-4/AM dye based assay; type: cell-based
T1 sequence (Q9Y210 whole entry): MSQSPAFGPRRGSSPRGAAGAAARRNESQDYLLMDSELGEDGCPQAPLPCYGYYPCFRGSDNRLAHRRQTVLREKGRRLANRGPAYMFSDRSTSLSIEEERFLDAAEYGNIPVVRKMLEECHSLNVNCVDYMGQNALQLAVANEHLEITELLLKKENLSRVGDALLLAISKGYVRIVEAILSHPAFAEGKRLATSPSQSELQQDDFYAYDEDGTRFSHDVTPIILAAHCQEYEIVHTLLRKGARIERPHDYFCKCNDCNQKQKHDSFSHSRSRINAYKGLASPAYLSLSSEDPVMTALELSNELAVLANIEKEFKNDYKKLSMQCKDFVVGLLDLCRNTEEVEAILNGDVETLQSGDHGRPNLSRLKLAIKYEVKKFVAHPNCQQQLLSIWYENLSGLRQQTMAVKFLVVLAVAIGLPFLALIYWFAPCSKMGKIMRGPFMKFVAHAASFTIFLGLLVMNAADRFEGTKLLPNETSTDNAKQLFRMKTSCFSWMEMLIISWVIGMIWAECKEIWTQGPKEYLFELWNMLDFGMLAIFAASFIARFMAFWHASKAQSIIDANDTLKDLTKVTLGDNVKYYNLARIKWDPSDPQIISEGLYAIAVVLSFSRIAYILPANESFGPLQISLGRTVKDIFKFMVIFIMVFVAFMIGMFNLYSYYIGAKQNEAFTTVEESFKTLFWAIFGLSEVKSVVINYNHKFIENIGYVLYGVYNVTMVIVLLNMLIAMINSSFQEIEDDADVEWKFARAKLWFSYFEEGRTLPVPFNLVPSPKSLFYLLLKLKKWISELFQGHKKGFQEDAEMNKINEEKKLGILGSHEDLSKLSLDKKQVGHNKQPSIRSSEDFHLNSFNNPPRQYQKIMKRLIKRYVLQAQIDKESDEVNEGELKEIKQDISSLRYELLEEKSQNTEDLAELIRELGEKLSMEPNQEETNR

[2] = target: T2, Short transient receptor potential channel 4 (Homo sapiens, UniProt Q9UBN4); assay: Inhibition of human TRPC4 expressed in HEK293 cells assessed as reduction in sphingosine-1-phosphate-induced current at -100 mV by patch clamp assay; type: cell-based
T2 sequence (Q9UBN4 whole entry): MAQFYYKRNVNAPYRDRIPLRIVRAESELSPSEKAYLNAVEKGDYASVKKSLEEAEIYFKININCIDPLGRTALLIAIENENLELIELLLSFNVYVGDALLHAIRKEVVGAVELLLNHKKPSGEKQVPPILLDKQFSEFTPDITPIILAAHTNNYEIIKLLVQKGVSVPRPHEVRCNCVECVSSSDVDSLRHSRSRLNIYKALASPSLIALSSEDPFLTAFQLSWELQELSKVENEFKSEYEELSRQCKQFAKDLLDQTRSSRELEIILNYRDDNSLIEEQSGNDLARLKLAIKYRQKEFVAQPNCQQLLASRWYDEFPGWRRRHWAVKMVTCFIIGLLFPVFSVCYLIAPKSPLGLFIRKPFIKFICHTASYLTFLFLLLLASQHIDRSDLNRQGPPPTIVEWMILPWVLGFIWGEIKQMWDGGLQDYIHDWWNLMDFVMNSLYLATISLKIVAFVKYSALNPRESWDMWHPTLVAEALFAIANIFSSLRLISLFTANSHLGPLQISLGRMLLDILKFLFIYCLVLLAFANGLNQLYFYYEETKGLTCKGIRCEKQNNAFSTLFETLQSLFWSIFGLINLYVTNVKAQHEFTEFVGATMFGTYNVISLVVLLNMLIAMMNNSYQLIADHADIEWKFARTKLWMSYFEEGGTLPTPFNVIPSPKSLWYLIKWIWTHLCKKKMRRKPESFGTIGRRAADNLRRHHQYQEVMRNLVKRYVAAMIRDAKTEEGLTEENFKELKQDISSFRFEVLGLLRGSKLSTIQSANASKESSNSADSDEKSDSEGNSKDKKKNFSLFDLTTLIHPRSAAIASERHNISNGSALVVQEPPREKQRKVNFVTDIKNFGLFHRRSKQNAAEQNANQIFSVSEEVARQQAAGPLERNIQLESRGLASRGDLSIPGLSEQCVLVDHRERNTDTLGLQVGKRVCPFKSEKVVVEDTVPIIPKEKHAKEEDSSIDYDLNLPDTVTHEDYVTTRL

TRPC1/TRPC5 = TRPC1/TRPC5 (Homo sapiens, UniProt P48995+Q9UL62); assay: Inhibition of human TRPC5/human TRPC1 expressed in HEK293 cells assessed as reduction in englerin A-induced calcium entry incubated for 30 mins by Fluo-4AM dye based fluorescence assay; type: cell-based
TRPC4/TRPC1 = TRPC4/TRPC1 (Homo sapiens, UniProt P48995+Q9UBN4); assay: Inhibition of human TRPC4/human TRPC1 expressed in HEK293 cells assessed as reduction in englerin A-induced calcium entry incubated for 30 mins by Fluo-4AM dye based fluorescence assay; type: cell-based
[3] = target: T2, Short transient receptor potential channel 4; assay: Inhibition of human TRPC4 expressed in HEK293 cells assessed as reduction in sphingosine-1-phosphate-induced current at +100 mV by patch clamp assay; type: cell-based
[4] = target: T2, Short transient receptor potential channel 4; assay: Inhibition of human TRPC4 expressed in HEK293 cells assessed as reduction in englerin A-induced calcium entry incubated for 30 mins by Fluo-4AM dye based fluorescence assay; type: cell-based
TRPC6 [5] = assay: Agonist activity at TRPC6 expressed in HEK293 cells coexpressing M5 receptor assessed as induction of TRPC6-mediated calcium influx by fluorescence method
[6] = Protein binding in C57BL/6 mouse plasma assessed as unbound fraction by liquid chromatography-tandem mass spectrometry; type: ADME, cell-free
[7] = Drug concentration in C57BL/6 mouse brain at 1 mg/kg, iv after 2 hrs by liquid chromatography-tandem mass spectrometry; type: ADME, organism-based; conditions: read-out: Drug uptake
[8] = Drug concentration in C57BL/6 mouse plasma at 1 mg/kg, iv after 2 hrs by liquid chromatography-tandem mass spectrometry; type: ADME, organism-based; conditions: in vivo
ORAI1/STIM1 = ORAI1/STIM1 (Rattus norvegicus, UniProt P84903+Q5M848); assay: Inhibition of ORAI/STIM1 in thapsigargin treated rat RBL2H3 cells assessed as reduction in store-operated calcium entry after 5 mins by fura-2-AM dye based assay; type: cell-based
[9] = target: T3, Short transient receptor potential channel 3 (Homo sapiens, UniProt Q13507); assay: Inhibition of YFP-tagged TRPC3 (unknown origin) expressed in HEK293 cells assessed as reduction carbhocol-induced receptor operated Calcium influx after 5 mins by fura-2-AM dye based assay; type: cell-based
T3 sequence (Q13507 whole entry): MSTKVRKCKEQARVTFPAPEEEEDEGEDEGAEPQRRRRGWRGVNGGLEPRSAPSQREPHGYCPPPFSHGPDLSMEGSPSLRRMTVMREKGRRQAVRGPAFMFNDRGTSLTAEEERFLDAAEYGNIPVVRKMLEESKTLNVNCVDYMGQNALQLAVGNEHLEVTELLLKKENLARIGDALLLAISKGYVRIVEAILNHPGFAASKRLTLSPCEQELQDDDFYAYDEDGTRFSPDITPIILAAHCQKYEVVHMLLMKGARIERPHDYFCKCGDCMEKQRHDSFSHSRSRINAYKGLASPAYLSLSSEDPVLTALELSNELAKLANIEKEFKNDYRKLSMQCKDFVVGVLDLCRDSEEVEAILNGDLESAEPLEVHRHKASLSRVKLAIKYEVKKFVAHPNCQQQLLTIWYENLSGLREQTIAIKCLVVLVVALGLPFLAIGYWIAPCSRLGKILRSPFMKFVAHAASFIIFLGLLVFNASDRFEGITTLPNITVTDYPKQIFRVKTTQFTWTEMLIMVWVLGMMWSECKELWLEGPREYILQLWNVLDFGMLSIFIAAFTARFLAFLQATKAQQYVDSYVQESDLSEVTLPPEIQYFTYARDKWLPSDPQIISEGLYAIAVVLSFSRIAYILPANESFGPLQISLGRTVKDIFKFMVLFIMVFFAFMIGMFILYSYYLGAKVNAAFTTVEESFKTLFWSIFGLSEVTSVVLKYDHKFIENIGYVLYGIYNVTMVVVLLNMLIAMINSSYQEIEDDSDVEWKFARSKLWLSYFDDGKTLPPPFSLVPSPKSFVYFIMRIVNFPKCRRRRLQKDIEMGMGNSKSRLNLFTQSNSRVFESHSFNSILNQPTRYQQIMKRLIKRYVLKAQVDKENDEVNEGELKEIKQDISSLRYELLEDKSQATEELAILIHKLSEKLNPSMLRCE

[10] = target: T4, Short transient receptor potential channel 5 (Homo sapiens, UniProt Q9UL62); assay: Inhibition of TRPC5 (unknown origin)
T4 sequence (Q9UL62 whole entry): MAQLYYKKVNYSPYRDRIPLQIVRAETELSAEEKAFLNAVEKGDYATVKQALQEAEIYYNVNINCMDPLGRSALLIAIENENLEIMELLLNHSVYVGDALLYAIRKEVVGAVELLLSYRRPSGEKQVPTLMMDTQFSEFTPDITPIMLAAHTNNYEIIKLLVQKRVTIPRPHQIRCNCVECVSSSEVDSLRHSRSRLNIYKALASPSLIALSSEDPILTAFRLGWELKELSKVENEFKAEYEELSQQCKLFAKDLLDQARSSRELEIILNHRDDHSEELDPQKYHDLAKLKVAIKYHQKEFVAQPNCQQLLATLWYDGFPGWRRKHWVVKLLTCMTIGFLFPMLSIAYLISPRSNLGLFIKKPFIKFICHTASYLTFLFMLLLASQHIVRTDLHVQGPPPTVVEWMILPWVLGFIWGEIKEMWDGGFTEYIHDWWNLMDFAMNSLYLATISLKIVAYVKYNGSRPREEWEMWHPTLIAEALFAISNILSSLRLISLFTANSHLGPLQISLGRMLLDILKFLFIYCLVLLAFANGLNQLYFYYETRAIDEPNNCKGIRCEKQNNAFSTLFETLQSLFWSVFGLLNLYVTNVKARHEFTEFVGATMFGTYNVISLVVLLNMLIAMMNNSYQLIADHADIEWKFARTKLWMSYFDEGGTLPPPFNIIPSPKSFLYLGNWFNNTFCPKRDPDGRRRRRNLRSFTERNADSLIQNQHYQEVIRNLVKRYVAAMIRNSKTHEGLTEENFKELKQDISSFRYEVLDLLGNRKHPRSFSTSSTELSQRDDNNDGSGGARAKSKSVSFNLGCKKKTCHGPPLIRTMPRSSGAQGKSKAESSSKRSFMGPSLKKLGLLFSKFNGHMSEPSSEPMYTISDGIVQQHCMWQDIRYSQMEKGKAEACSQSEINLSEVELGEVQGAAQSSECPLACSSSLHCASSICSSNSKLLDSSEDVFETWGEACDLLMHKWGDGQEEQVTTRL

TRPC6 [11] = assay: Inhibition of TRPC6 expressed in HEK293 cells coexpressing M5 receptor assessed as reduction in TRPC6-mediated calcium influx by fluorescence method
MKN-45 = assay: Antiproliferative activity against human MKN45 cells by MTT assay; type: functional, cell-based
AGS [12] = assay: Antitumor activity against human AGS cells xenografted in BALB/c mouse assessed as reduction in tumor growth at 100 mg/kg, ip BID administered for 2 consecutive weeks and measured every 3 days during compound dosing relative to control; type: functional; conditions: 72 h, read-out: TGI
AGS [13] = assay: Antiproliferative activity against human AGS cells by MTT assay; type: functional, cell-based
AGS [14] = assay: Antitumor activity against human AGS cells xenografted in BALB/c mouse assessed as reduction in tumor growth at 200 mg/kg, ip BID administered for 2 consecutive weeks and measured every 3 days during compound dosing relative to control; type: functional; conditions: 72 h, read-out: TGI
[15] = target: T3, Short transient receptor potential channel 3; assay: Inhibition of TRPC3 (unknown origin)
[16] = Inhibition of ORAI (unknown origin) assessed as reduction in Ang2-induced NFAT translocation; set-up: species or system Homo sapiens

Sequence of ORAI1/STIM1 (P84903 whole entry): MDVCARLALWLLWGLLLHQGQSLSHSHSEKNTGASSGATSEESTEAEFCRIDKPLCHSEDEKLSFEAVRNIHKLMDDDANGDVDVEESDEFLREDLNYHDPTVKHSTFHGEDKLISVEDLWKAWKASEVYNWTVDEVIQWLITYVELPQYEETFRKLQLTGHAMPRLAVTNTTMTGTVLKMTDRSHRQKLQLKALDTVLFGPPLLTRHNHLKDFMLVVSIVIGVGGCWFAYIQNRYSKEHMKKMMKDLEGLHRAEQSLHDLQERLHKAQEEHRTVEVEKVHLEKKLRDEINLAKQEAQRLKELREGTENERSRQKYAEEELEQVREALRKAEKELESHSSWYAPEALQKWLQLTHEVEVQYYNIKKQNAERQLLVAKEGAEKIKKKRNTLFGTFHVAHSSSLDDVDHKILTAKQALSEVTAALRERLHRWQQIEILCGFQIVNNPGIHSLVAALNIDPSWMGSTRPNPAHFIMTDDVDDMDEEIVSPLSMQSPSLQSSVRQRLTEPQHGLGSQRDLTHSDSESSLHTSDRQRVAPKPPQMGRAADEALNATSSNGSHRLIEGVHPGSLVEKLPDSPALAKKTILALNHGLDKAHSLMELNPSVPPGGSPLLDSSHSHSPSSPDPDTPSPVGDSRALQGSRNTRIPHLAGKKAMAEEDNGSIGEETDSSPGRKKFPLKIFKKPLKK
Sequence of ORAI1/STIM1 (Q5M848 whole entry): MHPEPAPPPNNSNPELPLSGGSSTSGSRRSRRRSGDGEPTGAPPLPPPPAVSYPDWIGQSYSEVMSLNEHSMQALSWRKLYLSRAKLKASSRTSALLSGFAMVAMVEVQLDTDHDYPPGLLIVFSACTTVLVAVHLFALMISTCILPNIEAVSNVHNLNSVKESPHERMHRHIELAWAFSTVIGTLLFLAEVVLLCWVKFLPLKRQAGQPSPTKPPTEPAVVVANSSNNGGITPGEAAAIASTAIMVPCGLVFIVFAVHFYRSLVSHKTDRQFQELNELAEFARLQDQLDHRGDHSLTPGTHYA
Sequence of TRPC1/TRPC5 (P48995 whole entry, one chain of several): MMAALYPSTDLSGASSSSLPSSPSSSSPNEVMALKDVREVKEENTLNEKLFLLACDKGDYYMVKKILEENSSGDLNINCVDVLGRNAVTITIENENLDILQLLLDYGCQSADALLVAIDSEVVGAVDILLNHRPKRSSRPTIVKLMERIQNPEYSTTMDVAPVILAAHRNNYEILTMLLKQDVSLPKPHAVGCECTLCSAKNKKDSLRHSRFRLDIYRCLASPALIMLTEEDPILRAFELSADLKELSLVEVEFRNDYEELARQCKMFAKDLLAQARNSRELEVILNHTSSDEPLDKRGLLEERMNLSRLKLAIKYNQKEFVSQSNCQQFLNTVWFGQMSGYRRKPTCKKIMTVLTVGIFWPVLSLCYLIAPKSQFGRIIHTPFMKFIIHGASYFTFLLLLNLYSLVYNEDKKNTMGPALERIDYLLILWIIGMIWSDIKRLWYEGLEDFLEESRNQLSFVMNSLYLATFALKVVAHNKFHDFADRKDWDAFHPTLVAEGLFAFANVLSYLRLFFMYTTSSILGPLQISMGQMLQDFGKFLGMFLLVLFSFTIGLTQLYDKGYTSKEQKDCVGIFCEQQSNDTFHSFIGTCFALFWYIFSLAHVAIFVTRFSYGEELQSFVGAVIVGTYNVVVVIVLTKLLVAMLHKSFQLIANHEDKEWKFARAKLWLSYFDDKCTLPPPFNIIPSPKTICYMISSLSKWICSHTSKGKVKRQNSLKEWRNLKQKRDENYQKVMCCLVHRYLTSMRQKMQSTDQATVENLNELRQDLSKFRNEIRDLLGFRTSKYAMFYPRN
Sequence of TRPC4/TRPC1 (P48995 whole entry, one chain of several): as above

Compound: C=C[C@](C)(O)CC[C@H]1C(=C)C[C@H](O)[C@H]2C(C)(C)CCC[C@]12C
pIC50 [1]: 5.80

Compound: CCOC(=O)N1CCC(c2cc(O)n3nc(C)c(-c4ccc(F)cc4)c3n2)CC1
pEC50 (TRPC6 [5]): 5.33

Compound: Cn1c(=O)n(CCCO)c(=O)c2c1nc(Oc1cccc(Cl)c1)n2Cc1ccc(Cl)cc1
Fu [6]: 0.4% | concentration at 2 h [7]: 339 nM | Cp [8]: 299 nmol/kg

More lines, main results first:

pIC50 [2]: 10.92 | pIC50 (TRPC1/TRPC5): 9.72 | pIC50 (TRPC4/TRPC1): 10.48 | pIC50 [3]: 10.52 | pIC50 [4]: 9.47
Compound: Cn1c(=O)n(CCCO)c(=O)c2c1nc(Oc1cccc(OC(F)(F)F)c1)n2Cc1ccc(Cl)cc1 [ZERENCOTREP]

pIC50 (ORAI1/STIM1): 6.23 | pIC50 [9]: 5.38 | pIC50 [10]: 6.52
Compound: Cc1nnsc1C(=O)Nc1ccc(-n2nc(C(F)(F)F)cc2C(F)(F)F)cc1

pIC50 (TRPC6 [11]): 6.00 | pIC50 (MKN-45): 4.73 | pIC50 (AGS [13]): 4.77
Compound: CCOC(=O)N1CCC(C)(c2cc(O)n3nc(C)c(-c4ccc(C(F)(F)F)cc4)c3n2)CC1
inhibition in vivo at 100 mg/kg (AGS [12]): 38.5% | inhibition in vivo at 200 mg/kg (AGS [14]): 61.5%

pIC50 (ORAI1/STIM1): 6.27 | pIC50 [9]: 6.27 | pIC50 [15]: 6.15 | pIC50 [16]: 7.30
Compound: CCOC(=O)c1cnn(-c2ccc(NC(=O)C(Cl)=C(Cl)Cl)cc2)c1C(F)(F)F
